Where “and” joins values, the source holds several entries; their conditions need not be identical. Identical values can stand only once.
Legend:
Format in all cases: cell-based
320 non-olfactory GPCRs [1] = target: T1, 320 non-olfactory GPCRs (Homo sapiens, UniProt O00254)
T1 construct: expressed in transfected cells; host or cells: HTLA cells

320 non-olfactory GPCRs [2] = target: 320 non-olfactory GPCRs (Homo sapiens, UniProt P08172)
320 non-olfactory GPCRs [3] = target: T2, 320 non-olfactory GPCRs (Homo sapiens, UniProt P0DMS8)
T2 construct: expressed in transfected cells; host or cells: HTLA cells
T2 sequence (P0DMS8 whole entry): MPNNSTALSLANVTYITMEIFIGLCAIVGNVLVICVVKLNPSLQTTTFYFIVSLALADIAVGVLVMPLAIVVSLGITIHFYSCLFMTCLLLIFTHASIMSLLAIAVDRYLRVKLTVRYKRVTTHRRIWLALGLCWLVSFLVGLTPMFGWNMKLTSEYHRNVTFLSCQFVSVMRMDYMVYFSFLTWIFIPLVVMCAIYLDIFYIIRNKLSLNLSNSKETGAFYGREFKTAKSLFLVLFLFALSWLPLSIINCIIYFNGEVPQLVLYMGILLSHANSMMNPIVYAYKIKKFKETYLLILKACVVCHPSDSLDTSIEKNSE

320 non-olfactory GPCRs [4] = target: T3, 320 non-olfactory GPCRs (Homo sapiens, UniProt P28336); settings: receptor NMBR; replicate values, Fig_4g
T3 construct: expressed in transfected cells; host or cells: HTLA cells
T3 sequence (P28336 whole entry): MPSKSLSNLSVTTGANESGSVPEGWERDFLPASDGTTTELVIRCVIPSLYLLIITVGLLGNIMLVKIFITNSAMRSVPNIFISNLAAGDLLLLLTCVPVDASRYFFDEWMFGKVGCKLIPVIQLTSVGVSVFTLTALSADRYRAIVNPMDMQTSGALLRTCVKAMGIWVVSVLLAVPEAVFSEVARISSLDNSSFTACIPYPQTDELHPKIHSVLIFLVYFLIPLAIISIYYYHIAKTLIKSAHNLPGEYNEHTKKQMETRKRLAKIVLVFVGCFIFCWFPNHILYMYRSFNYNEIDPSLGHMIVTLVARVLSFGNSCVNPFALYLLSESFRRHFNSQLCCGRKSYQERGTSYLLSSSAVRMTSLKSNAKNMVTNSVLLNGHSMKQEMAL
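Throughout, for Fold of Basal: compound tested at 1 µM final concentration.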
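Throughout, for GPCRome agonism screen response: fold over basal response of each receptor without drug.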

Sequence of 320 non-olfactory GPCRs (Homo sapiens, UniProt P08172) (P08172 whole entry): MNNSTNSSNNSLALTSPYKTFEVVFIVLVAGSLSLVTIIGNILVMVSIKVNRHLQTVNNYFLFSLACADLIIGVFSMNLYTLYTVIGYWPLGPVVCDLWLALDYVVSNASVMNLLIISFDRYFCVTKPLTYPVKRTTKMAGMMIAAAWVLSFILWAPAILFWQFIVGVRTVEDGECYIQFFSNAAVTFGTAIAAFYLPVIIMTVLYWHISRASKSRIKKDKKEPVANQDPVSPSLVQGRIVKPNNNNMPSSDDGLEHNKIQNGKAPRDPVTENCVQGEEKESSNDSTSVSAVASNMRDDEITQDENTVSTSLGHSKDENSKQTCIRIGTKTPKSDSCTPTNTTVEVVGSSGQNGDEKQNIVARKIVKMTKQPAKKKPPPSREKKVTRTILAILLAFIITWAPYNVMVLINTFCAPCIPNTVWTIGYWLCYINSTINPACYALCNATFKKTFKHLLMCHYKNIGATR
T1 sequence (O00254 22-374): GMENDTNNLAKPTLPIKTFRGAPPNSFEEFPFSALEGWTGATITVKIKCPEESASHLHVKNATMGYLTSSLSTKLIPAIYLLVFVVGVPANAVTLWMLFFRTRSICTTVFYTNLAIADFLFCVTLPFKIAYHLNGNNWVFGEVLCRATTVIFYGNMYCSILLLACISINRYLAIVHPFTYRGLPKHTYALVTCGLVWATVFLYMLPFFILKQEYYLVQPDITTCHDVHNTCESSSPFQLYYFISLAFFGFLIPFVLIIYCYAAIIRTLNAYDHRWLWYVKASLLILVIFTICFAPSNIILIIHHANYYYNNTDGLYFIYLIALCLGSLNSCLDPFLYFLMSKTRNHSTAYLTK

CCOc1cccc2cc(C(C)NCC3(O)CCCCC3)oc12 (stereo not shown) [O4LE6]
Fold of Basal (320 non-olfactory GPCRs [1]): 0.8171 and 1.363 and 1.064 and 0.8535 | Fold of Basal (320 non-olfactory GPCRs [2]): 1.524 and 1.414 and 0.8585 and 0.8596 | Fold of Basal (320 non-olfactory GPCRs [3]): 1.06 and 1.364 and 1.085 and 1.781 | GPCRome agonism screen response (320 non-olfactory GPCRs [4]): 0.2359 and 0.9261 and 0.9727 and 0.7093
